According to paper PMC8571378, “Reversion analysis reveals the in vivo immunogenicity of a poorly MHC I-binding cancer neoepitope” (Nature Communications, 2021):

Experiments:
[1] = system: Meth A; test: CD4 depletion (GK1.5) in immunized, Meth A-challenged mice; type: in vivo, BALB/cJ mice
Source text: In order to determine if any peptides within Ccdc85c^MUT could be presented by MHC II molecules, we analyzed the interaction of H2-A^d and H2-E^d with TYIRPFETKVK, YIRPFETKVK and IRPFETKVK as well as their wild type counterparts, using a cell-surface density assay. In this assay, β-chains of H2-Ab1^d or H2-Eb1^d are expressed in fusion with the peptide of interest and the amount of cell-surface MHC II, as a measure of intrinsic stability of MHC II, is quantified in engineered conditions. The measured cell-surface MHC density correlates well with the actual affinity of the peptide to MHC II. […] This was observed when CD4 depletion was carried out during the priming phase alone (as in Supplementary Fig. 2b), or throughout the entire experiment including the effector phase (i.e. post tumor challenge).
Supplementary Fig. 2. Assessing CD4 response to Ccdc85c . a Presentation of Ccdc85cMUT and Ccdc85cWT peptides by H2-IA and H2-IE are measured by cell-surface density assay. The y-axis indicates MHC/GFP (ratio of MHC MFI to GFP MFI) for MHC II-peptide, normalized to the MHC/GFP of the negative control peptide, G9, 9-mer all-glycine. Four technical and two independent biological repeats of this experiment have been practiced. The following additional negative control peptides are used: G12 (12-mer all-glycine) and GGS12 (4x(glycine-glycine-serine). b. Naïve BALB/cJ mice were injected with 250 µg of CD4 depleting GK1.5 antibody or isotype control during the priming phase (6 days before the first immunization). Mice were immunized, as described in the Methods, with Ccdc85cMUT and were challenged with 95,000 Meth A cells. The differences between tumor growth curves […]
(1 picture or pasted object on this page, not shown here)

[2] = system: tumor infiltrating CD45 + cells; test: scRNA seq of tumor infiltrating CD45+ cells in immunized mice; type: in vivo, BALB/cJ mice
Source text: Tumor microenvironment (TME) of Ccdc85c^MUT-immunized mice was examined using single cell RNA sequencing (scRNA seq). BMDCs- immunized mice were used as controls. As a peptide control, mice immunized with a neoepitope Alms1^MUT were used. […] Mice were immunized with Ccdc85c^MUT, Alms1^MUT (peptide control) or BMDCs (control) as described in Methods, and were challenged with Meth A. RNA from CD45 + cells (estimated 15,925 cells for the four libraries after QC, with an average coverage of 32,663 reads per cell and median 1,339 genes per cell) was sequenced. Data from the four libraries were pooled and clustered based on the gene expression pattern of each as described in Methods. Annotation of the clusters was informed by both differentially expressed genes (DE Genes) and per cluster highly expressed genes identified by the TF-IDF analysis as described in Methods. Two major and distinct clusters were identified namely, myeloid and lymphoid. […] The proportion of lymphoid versus myeloid compartments in the Ccdc85c^MUT library was very different compared to the Alms1^MUT or control groups. The Ccdc85c^MUT library was mostly composed of lymphoid cells (62.68% lymphoid and 37.32% myeloid), while the control groups and mice immunized with Alms1^MUT were mostly composed of the myeloid compartment (~35% lymphoid and ~64% myeloid) (Fig. 2a, right panel). In order to study different cell types, lymphoid and myeloid clusters were re-clustered into 6 and 9 sub-clusters, respectively (Fig. 2a, bottom panel). The six identified lymphoid clusters were: CD4 T cells (CD4(1)), NKC(1), naive/early activated CD4 T cells (CD4(2), defined by a high expression of Sell, Il7r, Tcf7 and Ccr7 genes and low expression of Il2ra and lack of expression of effector and cytotoxicity genes), NKC(2) (less cytotoxic and active than NKC(1)), CD8 T cells (CD8) and proliferating CD4/CD8 T cells (Pr. CD4/CD8, defined by higher expression of Stmn1 and Mki67 genes and cell cycle gene expression analysis, described in Methods). The selected genes used as markers to annotate each lymphocyte cluster are listed in the summary heat map (Fig. 2b, right panel).
Fig. 2 Immune response in mice immunized with Ccdc85c^MUT and control neoepitope Alms1.1^MUT. a Tumors from mice immunized with Ccdc85c^MUT or Alms1.1^MUT as well as two groups of control mice immunized with BMDCs were harvested 10 days after tumor challenge. Tumor infiltrating CD45 + cells were sorted and analyzed by scRNA seq as described in Methods and Supplementary Fig 9b. Combined scRNA seq data from four libraries were analyzed. The t-SNE[34] plots of all intra-tumoral immune cells as well as myeloid and lymphoid compartments are shown in the top left panel. Myeloid and lymphoid composition for each library is shown on the right panel. The myeloid and lymphoid sub-clusters are shown in the bottom panels. See text for definition of each sub-cluster. b Heat maps of the indicated genes in the myeloid and lymphoid compartments are shown. The heat map genes were selected from the list of differentially expressed genes, genes with a high average TF-IDF score, and typical cell type markers. The average gene expression for each cluster was normalized by dividing it from the maximum value of each row (gene). c Summary heat map of selected genes associated with cytotoxicity for pooled activated T cells is shown. The heat map illustrates scaled (Z-scored) average gene expression by library. TEXT PRINTED IN THE PICTURE: (a) Alms1.1^MUT: Lymphoid cells: 34.28%; Myeloid cells: 65.72% | (a) Ccdc85c^MUT: Lymphoid cells: 62.68%; Myeloid cells: 37.32% DOUBTS OF THE COPYIST ABOUT THIS PICTURE: Panel a, bar chart: no measure is printed beside the percentages. I assigned them to 'Lymphoid cells' (blue) and 'Myeloid cells' (red) only by matching the colours of the plot next to it. / Panel a, bar chart: the control bars also carry percentages (Cont.1: 35.75% and 64.25%; Cont.2: 37.55% and 62.45%). […]

[3] = compared to control or Alms1^MUT libraries
[4] = tumors harvested 10 days after Meth A challenge

DPSSTYIRPFETKVKLLD [18-mer peptide with the mutant amino acid near the center]
effect of CD4 T cell depletion on tumor rejection ([1]; 250 µg GK1.5, priming phase (6 days before first immunization), 95,000 Meth A cells, listed as Ccdc85cMUT): not statistically significant
effect of CD4 T cell depletion on tumor rejection ([1]; 250 µg GK1.5, priming phase (6 days before first immunization), 95,000 Meth A cells, listed as Ccdc85c^MUT): did not lead to reproducible and statistically significant abrogation of tumor rejection
effect of CD4 T cell depletion on tumor rejection ([1]; depletion throughout the entire experiment including the effector phase): did not lead to reproducible and statistically significant abrogation of tumor rejection
contribution of library to myeloid cluster Mφ1 ([2]; Mφ1): ~ 20%
contribution of library to myeloid cluster Mφ2 ([2]; Mφ2, highest apart from Mφ1): 13.4%
contribution of library to myeloid cluster Mφ3 ([2]; Mφ3, lowest contribution): 1.6%
expression of cytotoxicity (Gzmb, Prf, Nkg7) and effector function (Ifng) genes in T cells [2, 3]: significantly higher
expression of genes involved in TCR engagement (Nr4a1 and Irf4) in T cells [2, 3]: significantly higher
expression of Eomes in T cells ([2]; compared to other libraries): significantly higher
contribution of library to pooled activated CD4 and CD8 T cells (clusters 1 and 5) ([2]; proliferating CD4/CD8 T excluded): 31%
Lymphoid cells, fraction of intra-tumoral immune cells [2, 4]: 62.68%
Myeloid cells, fraction of intra-tumoral immune cells [2, 4]: 37.32%
fraction of NK cells from the NKC(1) (more cytotoxic and active) cluster [2, 4]: ~ 80%
